Columns and labels:
[1] = molecular target: 5-hydroxytryptamine receptor 6 (Homo sapiens, UniProt P50406); experiment: Displacement of [3H]-LSD from human 5HT6 receptor expressed in HEK293 cells measured after 1 hr by microbeta plate reader method; assay type: cell-based
[2] = molecular target: T1, Amine oxidase [flavin-containing] B (Homo sapiens, UniProt P27338); experiment: Inhibition of recombinant human MAO-B expressed in baculovirus infected BTI insect cells using p-tyramine as substrate preincubated for 30 mins followed by substrate addition and measured after 1 hr by fluorimetric analysis
T1 sequence (P27338 whole entry): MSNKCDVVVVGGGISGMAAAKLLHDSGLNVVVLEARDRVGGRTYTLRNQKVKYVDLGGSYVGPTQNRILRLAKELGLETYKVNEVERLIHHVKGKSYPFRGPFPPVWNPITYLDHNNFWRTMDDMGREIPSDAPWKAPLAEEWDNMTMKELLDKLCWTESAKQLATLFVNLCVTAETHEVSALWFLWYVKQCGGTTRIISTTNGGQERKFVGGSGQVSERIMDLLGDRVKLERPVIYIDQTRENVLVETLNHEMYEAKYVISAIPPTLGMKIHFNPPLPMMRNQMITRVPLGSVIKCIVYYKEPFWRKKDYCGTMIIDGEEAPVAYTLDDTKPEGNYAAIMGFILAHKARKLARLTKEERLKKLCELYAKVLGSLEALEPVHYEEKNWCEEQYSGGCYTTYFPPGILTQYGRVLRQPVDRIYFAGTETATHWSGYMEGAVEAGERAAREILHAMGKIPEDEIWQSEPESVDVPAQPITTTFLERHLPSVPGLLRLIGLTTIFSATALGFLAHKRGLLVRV

[3] = molecular target: T1, Amine oxidase [flavin-containing] B; settings: BTI, 1 h, read-out: INH
Description: Inhibition of recombinant human MAO-B expressed in baculovirus infected BTI insect cells at 1 uM using p-tyramine as substrate preincubated for 30 mins followed by substrate addition and measured after 1 hr by fluorimetric analysis relative to control

[4] = molecular target: T2, 5-hydroxytryptamine receptor 1A (Homo sapiens, UniProt P08908); experiment: Displacement of [3H]8-OH-DPAT from human 5HT1A receptor expressed in HEK293 cells incubated at room temperature for 1 hr by microbeta plate reader analysis; assay type: cell-based
T2 sequence (P08908 whole entry): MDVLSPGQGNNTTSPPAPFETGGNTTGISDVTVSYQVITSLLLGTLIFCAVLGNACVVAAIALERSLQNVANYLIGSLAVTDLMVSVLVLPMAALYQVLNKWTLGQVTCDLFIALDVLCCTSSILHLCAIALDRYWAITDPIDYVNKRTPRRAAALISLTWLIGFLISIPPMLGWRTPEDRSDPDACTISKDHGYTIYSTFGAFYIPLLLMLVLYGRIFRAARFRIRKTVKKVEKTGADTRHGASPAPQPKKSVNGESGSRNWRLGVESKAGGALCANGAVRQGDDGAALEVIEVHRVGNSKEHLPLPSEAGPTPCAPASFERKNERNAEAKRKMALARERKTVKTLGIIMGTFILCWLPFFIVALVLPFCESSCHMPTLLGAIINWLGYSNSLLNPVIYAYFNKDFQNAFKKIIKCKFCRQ

[5] = molecular target: 5-hydroxytryptamine receptor 2A (Homo sapiens, UniProt P28223); experiment: Displacement of [3H]-Ketanserin from human 5HT2A receptor expressed in CHOK1 cells incubated at 27 degree C for 1 hr by microbeta plate reader analysis; assay type: cell-based, CHO-K1
Sequence of 5-hydroxytryptamine receptor 2A (P28223 whole entry): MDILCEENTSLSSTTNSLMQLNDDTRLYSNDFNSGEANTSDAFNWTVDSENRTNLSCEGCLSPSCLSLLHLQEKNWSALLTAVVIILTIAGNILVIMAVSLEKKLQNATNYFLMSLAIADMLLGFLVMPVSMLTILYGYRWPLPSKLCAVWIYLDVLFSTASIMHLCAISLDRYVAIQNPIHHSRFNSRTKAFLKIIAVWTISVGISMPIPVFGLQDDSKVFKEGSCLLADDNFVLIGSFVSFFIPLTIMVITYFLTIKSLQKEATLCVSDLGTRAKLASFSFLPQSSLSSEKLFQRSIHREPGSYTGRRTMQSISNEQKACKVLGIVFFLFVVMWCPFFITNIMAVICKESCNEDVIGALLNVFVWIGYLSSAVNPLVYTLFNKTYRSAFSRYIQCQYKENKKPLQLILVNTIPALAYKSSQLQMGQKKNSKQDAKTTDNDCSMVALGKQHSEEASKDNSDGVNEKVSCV

[6] = molecular target: 5-hydroxytryptamine receptor 7 (Homo sapiens, UniProt P34969); experiment: Displacement of [3H]-5-CT from human 5HT7 receptor expressed in HEK293 cells measured after 1 hr by microbeta plate reader analysis; assay type: cell-based
Sequence of 5-hydroxytryptamine receptor 7 (P34969 whole entry): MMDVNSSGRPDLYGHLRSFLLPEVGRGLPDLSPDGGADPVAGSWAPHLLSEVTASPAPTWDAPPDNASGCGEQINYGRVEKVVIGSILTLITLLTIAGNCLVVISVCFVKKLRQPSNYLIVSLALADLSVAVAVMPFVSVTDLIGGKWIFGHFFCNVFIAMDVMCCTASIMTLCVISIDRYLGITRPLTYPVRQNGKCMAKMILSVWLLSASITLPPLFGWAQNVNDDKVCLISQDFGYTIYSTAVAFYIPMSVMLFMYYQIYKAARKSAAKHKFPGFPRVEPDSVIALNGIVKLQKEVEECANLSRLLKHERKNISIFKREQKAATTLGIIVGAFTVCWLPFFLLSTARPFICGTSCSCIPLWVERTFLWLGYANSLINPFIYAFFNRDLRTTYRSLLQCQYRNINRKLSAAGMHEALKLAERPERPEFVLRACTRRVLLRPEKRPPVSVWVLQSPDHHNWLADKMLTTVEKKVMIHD

D(2) dopamine receptor = D(2) dopamine receptor (Homo sapiens, UniProt P14416); experiment: Displacement of [3H]-raclopride from human D2 receptor expressed in HEK293 cells measured after 1 hr by microbeta plate reader analysis; assay type: cell-based
Sequence of D(2) dopamine receptor (P14416 whole entry): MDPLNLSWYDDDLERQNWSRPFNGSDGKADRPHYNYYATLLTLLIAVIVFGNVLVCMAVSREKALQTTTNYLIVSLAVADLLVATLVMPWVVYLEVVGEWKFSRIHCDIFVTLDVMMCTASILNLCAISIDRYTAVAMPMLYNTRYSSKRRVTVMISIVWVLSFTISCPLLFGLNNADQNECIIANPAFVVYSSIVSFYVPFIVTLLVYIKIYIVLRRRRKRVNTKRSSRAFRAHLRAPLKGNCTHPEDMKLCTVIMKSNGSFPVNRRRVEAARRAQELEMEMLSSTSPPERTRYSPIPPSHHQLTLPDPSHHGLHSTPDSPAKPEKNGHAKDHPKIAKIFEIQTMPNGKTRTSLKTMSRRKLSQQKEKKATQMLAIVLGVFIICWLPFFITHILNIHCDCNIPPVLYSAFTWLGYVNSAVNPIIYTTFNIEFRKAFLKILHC

[7] = molecular target: T3, Amine oxidase [flavin-containing] A (Homo sapiens, UniProt P21397); experiment: Inhibition of recombinant human MAO-A expressed in baculovirus infected BTI insect cells using p-tyramine as substrate preincubated for 30 mins followed by substrate addition and measured after 1 hr by fluorimetric analysis
T3 sequence (P21397 whole entry): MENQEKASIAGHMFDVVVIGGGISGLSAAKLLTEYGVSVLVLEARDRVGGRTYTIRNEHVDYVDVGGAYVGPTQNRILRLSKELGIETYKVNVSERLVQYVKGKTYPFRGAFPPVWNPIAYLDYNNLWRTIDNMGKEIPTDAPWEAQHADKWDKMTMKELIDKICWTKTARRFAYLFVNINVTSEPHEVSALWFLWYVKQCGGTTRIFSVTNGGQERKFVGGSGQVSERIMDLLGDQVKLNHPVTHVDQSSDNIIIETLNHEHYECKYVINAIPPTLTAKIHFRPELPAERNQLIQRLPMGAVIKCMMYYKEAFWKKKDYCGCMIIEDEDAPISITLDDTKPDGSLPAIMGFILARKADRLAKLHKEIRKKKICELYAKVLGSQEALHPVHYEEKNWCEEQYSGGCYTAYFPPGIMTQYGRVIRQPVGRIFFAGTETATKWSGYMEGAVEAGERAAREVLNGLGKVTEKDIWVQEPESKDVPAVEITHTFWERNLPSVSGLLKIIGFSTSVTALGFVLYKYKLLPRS

[8] = molecular target: T4, adrenergic alpha1A receptor (Homo sapiens, UniProt P35348); experiment: Displacement of [3H]-prazosin from human recombinant adrenergic alpha1A receptor at 1 uM incubated for 60 mins by radiometric scintillation analysis relative to control; settings: probe [3H]-prazosin
T4 sequence (P35348 whole entry): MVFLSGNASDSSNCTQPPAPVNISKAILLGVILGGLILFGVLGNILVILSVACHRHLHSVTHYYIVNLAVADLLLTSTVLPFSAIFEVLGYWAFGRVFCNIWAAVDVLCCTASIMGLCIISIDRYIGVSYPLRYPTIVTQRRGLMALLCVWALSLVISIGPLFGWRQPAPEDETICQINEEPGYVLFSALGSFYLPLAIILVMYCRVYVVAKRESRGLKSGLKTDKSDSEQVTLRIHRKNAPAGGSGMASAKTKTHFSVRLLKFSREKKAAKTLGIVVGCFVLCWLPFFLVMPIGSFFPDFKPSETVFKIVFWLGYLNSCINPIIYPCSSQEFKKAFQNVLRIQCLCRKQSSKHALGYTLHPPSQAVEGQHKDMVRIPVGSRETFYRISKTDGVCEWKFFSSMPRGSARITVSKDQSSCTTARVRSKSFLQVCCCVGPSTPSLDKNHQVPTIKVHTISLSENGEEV

beta1 adrenoceptor = beta1 adrenoceptor (Homo sapiens, UniProt P08588); experiment: Displacement of [3H](-)CGP 12177 from human recombinant beta1 adrenoceptor at 1 uM after 60 mins by radiometric scintillation analysis relative to control; settings: probe [3H](-)CGP 12177
Sequence of beta1 adrenoceptor (P08588 whole entry): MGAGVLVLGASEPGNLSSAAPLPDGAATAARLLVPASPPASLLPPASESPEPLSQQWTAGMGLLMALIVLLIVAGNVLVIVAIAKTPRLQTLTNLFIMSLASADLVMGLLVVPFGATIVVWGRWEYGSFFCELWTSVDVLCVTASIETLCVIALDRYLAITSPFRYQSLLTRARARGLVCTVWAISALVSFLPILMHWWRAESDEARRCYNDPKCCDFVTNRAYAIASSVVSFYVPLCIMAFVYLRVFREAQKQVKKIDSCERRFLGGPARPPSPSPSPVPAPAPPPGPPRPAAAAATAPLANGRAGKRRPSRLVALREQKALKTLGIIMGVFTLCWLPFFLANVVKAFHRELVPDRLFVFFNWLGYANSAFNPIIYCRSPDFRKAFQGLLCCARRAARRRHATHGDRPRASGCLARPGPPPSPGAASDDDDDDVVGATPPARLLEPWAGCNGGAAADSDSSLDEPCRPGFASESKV

histamine H1 receptor = histamine H1 receptor (Homo sapiens, UniProt P35367); experiment: Displacement of [3H]pyrilamine from human recombinant histamine H1 receptor at 1 uM after 60 mins by radiometric scintillation analysis relative to control; settings: probe [3H]pyrilamine
Sequence of histamine H1 receptor (P35367 whole entry): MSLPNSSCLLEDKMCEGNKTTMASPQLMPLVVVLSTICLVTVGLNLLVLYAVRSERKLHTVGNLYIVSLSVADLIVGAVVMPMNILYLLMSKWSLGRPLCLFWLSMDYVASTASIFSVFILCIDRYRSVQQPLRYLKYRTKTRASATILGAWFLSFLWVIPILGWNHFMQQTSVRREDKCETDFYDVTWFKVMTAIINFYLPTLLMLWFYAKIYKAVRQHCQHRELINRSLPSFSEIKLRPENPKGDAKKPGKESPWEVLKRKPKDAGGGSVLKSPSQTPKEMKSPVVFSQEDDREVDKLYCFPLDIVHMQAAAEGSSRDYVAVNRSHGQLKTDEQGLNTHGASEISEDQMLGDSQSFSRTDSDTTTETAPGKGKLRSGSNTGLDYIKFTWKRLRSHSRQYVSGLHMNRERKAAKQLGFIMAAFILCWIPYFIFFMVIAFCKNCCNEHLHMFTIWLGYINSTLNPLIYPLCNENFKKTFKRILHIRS

muscarinic M1 receptor = molecular target: T5, muscarinic M1 receptor (Homo sapiens, UniProt P11229); experiment: Displacement of [3H]pirenzepine from human recombinant muscarinic M1 receptor at 1 uM after 60 mins by radiometric scintillation analysis relative to control; settings: probe [3H]pirenzepine
T5 sequence (P11229 whole entry): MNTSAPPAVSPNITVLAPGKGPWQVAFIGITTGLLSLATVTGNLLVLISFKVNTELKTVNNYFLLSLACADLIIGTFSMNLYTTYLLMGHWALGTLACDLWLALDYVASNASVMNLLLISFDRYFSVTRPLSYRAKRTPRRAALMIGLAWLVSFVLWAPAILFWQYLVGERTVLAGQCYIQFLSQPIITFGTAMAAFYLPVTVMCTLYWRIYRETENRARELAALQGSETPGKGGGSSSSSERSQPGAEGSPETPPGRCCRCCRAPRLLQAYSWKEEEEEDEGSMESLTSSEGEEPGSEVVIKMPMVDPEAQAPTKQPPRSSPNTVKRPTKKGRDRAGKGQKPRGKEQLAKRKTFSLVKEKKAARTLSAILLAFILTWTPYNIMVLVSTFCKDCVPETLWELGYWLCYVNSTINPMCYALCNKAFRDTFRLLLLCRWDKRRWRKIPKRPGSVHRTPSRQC

[9] = Effective permeability of compound in PBS at pH 7.4 at 100 uM incubated for 5 hrs by PAMPA-BBB based UPLC-MS analysis; assay type: ADME; settings: read-out: Peff
[10] = Metabolic stability in rat liver microsomes assessed as intrinsic clearance at 10 uM incubated for 10 mins followed by NADPH regeneration system addition and measured after 60 mins by UPLC-MS analysis; assay type: ADME, Microsome; settings: time 70 min, read-out: CLH
[11] = Cmax in Wistar rat at 3 mg/kg, po measured up to 240 mins; assay type: ADME, organism-based; set-up: route oral, dose 3 mg/kg, time <=240; settings: in vivo
[12] = Tmax in Wistar rat at 3 mg/kg, po measured up to 240 mins; assay type: ADME, organism-based; settings: in vivo
[13] = Half life in Wistar rat at 3 mg/kg, po measured up to 240 mins; assay type: ADME, organism-based; settings: in vivo
[14] = Cytotoxicity against mouse C8D1A astrocytes upto 25 uM by MTT assay; settings: astrocyte
[15] = Cytotoxicity against mouse C8D1A astrocytes upto 25 uM by LDH assay; settings: astrocyte

Sequence of 5-hydroxytryptamine receptor 6 (P50406 whole entry): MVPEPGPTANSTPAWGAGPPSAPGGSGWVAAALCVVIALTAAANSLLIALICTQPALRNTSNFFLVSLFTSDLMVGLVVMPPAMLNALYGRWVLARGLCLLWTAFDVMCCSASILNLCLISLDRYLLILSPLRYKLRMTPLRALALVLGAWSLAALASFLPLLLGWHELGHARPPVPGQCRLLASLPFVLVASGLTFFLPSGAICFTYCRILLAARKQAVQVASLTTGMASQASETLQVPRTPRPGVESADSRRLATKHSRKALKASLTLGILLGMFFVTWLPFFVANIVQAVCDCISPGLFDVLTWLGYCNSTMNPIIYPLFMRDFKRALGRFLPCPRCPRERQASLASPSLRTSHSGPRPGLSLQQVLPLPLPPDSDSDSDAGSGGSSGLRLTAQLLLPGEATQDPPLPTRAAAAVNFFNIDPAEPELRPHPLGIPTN

Structure (SMILES)	Ki [1]	IC50 [2]	inhibition at 1 µM [3]	also measured
Clc1cccc(Cn2ccc3c(N4CCNCC4)cccc32)c1	0.007 µM	–	3%	–
C#CCNC1CCc2c(OCCCCCN3CCN(c4cccc5c4ccn5Cc4cccc(Cl)c4)CC3)cccc21 (stereo not drawn)	0.223 µM	0.46 µM	80%	–
O=S(=O)(c1ccccc1)n1ccc2c(N3CCNCC3)cccc21	–	–	3%	–
C[C@H](NCc1ccc(OCCCCCCN2CCN(c3cccc4c3ccn4Cc3cccc(Cl)c3)CC2)cc1)C(N)=O	0.34 µM	> 1 µM	23%	–
C[C@H](NCc1ccc(OCCCCN2CCN(c3cccc4c3ccn4S(=O)(=O)c3ccccc3)CC2)cc1)C(N)=O	0.068 µM	> 1 µM	20%	–
C#CCN(C)Cc1ccc(OCCCCN2CCN(c3cccc4c3ccn4Cc3cccc(Cl)c3)CC2)cc1	0.195 µM	0.323 µM	85%	–
C#CCN[C@@H]1CCc2ccccc21 [RASAGILINE]	0.0014 µM	–	–	–
C#CCNC1CCc2c(OCCCCCN3CCN(c4cccc5c4ccn5S(=O)(=O)c4ccccc4)CC3)cccc21 (stereo not drawn)	0.051 µM	0.163 µM	90%	–
C#CCN(C)Cc1ccc(OCCCCN2CCN(c3cccc4c3ccn4S(=O)(=O)c3ccccc3)CC2)cc1	0.054 µM	> 1 µM	51%	–
C[C@H](NCc1ccc(OCCCCN2CCN(c3cccc4c3ccn4Cc3cccc(Cl)c3)CC2)cc1)C(N)=O	0.162 µM	> 1 µM	24%	–
C#CCN(C)Cc1ccc(OCCCCCN2CCN(c3cccc4c3ccn4S(=O)(=O)c3ccccc3)CC2)cc1	–	0.154 µM	91%	Ki [4]: 0.684 µM; Ki [5]: 0.42 µM; Ki [6]: 8 µM; Ki (D(2) dopamine receptor): 0.813 µM; IC50 [7]: 1.04 µM; inhibition at 1 h, 1 µM [8]: 37%; inhibition at 1 h, 1 µM (beta1 adrenoceptor): 5%; inhibition at 1 h, 1 µM (histamine H1 receptor): 13%; inhibition at 1 h, 1 µM (muscarinic M1 receptor): 4%; Papp at 5 h, 100 µM [9]: 4.84 ×10⁻⁶ cm/s; CLint scaled at 10 µM [10]: 85 mL/min/kg; Cmax [11]: 72.7 ng/mL; Tmax [12]: 0.5 h; half-life [13]: 28 h; Activity [14]: Non-Toxic; Activity [15]: Non-Toxic
C[C@H](NCc1ccc(OCCCCCN2CCN(c3cccc4c3ccn4Cc3cccc(Cl)c3)CC2)cc1)C(N)=O	0.232 µM	> 1 µM	43%	–
C#CCNC1CCc2c(OCCN3CCN(c4cccc5c4ccn5Cc4cccc(Cl)c4)CC3)cccc21 (stereo not drawn)	0.1 µM	> 1 µM	35%	–

Continued by falling Ki [1], values first:

Ki [1]	IC50 [2]	inhibition at 1 µM [3]	Structure (SMILES)	also measured
0.259 µM	> 1 µM	34%	C#CCNC1CCc2c(OCCCCCCN3CCN(c4cccc5c4ccn5Cc4cccc(Cl)c4)CC3)cccc21 (stereo not drawn)	–
0.158 µM	> 1 µM	47%	C[C@H](NCc1ccc(OCCCN2CCN(c3cccc4c3ccn4Cc3cccc(Cl)c3)CC2)cc1)C(N)=O	–
0.14 µM	0.03 µM	100%	C#CCN(C)Cc1ccc(OCCCCCN2CCN(c3cccc4c3ccn4Cc3cccc(Cl)c3)CC2)cc1	–
0.137 µM	> 1 µM	32%	C#CCN(C)Cc1ccc(OCCCCCCN2CCN(c3cccc4c3ccn4Cc3cccc(Cl)c3)CC2)cc1	–
0.113 µM	0.27 µM	100%	C#CCNC1CCc2c(OCCCCN3CCN(c4cccc5c4ccn5Cc4cccc(Cl)c4)CC3)cccc21 (stereo not drawn)	–
0.077 µM	> 1 µM	31%	C#CCNC1CCc2c(OCCCN3CCN(c4cccc5c4ccn5Cc4cccc(Cl)c4)CC3)cccc21 (stereo not drawn)	–
0.065 µM	> 1 µM	17%	C[C@H](NCc1ccc(OCCCCCN2CCN(c3cccc4c3ccn4S(=O)(=O)c3ccccc3)CC2)cc1)C(N)=O	–
0.05 µM	> 1 µM	44%	C#CCNC1CCc2c(OCCCCN3CCN(c4cccc5c4ccn5S(=O)(=O)c4ccccc4)CC3)cccc21 (stereo not drawn)	–

From ChEMBL document CHEMBL4706587 (Eur J Med Chem, 2020)
